Source: patent US10604509B2, “Nrf2 regulators” (GlaxoSmithKline Intellectual Property Development Limited, priority 2015, dated 2020)
Where a name gives a salt, the structure may show the parent alone. Read-outs that look alike come from different tables or passages of the source.

Test system: NQO1 specific enzyme activity in BEAS-2B cells
Assay: BEAS-2B NQO1 MTT assay
Assay type: cell-based
Conditions: BEAS-2B cells, 48 hours with compound, MTT readout, read-out: EC50 of NQO1 specific activity induction
Method in brief: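 NQO1 specific activity, an NRF2 activation marker, read kinetically as absorbance change at 570 nm for 30 min after MTT cocktail addition to crude lysates of BEAS-2B cells exposed 48 h to compound. Three-parameter fit of Delta OD/min against log concentration gives EC50; lysate portion used for Cell Titer Glo.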

| Compound | EC50 (Homo sapiens, BEAS-2B, 48 h) [nM] | EC50 [nM] |
| --- | --- | --- |
| CC[C@@H]1CN(Cc2cc([C@@H](c3ccc4c(nnn4C)c3C)[C@H](C)C(=O)O)ccc2C)Cc2ccccc2O1 [Example 41, (2S,3S)-3-(1,4-Dimethyl-1H-benzo[d][1,2,3]triazol-5-yl)-3-(3-(((R)-2-ethyl-2,3-dihydrobenzo[f][1,4]oxazepin-4(5H)-yl)methyl)-4-methylphenyl)-2-methylpropanoic Acid] | 100 to 1000 | – |
| Cc1ccc(C(c2ccc3c(nnn3C)c2C)C(C)(C)C(=O)O)cc1Cn1ccnc1CC1CCOCC1 (stereo not drawn) [Example 145, 3-(1,4-Dimethyl-1H-benzo[d][1,2,3]triazol-5-yl)-2,2-dimethyl-3-(4-methyl-3-((2-((tetrahydro-2H-pyran-4-yl)methyl)-1H-imidazol-1-yl)methyl)phenyl) propanoic acid, trifluoroacetic acid salt] | 100 to 1000 | – |
| CCC1CN(Cc2cc([C@@H](c3ccc4c(nnn4C)c3C)C(C)C(=O)O)ccc2C)Cc2ccccc2O1 (stereo partly drawn) [Example 100, (3S)-3-(1,4-dimethyl-1H-benzo[d][1,2,3]triazol-5-yl)-3-(3-((2-ethyl-2,3-dihydrobenzo[f][1,4]oxazepin-4(5H)-yl)methyl)-4-methylphenyl)-2-methylpropanoic Acid] | 10 to 100 | – |
| Cc1c(C(CC(=O)O)c2ccc(Cl)c(CN3Cc4ncccc4OC(C)(C)C3)c2)ccc2c1nnn2C (single isomer, unassigned; isomer 1) [Example 262] | 10 to 100 | – |
| CC[C@@H]1CN(Cc2cc([C@H](c3ccc4c(nnn4C)c3C)C(C)(C)C(=O)O)ccc2C)Cc2ccccc2O1 [Example 27, (R)-3-(1,4-Dimethyl-1H-benzo[d][1,2,3]triazol-5-yl)-3-(3-(((R)-2-ethyl-2,3-dihydrobenzo[f][1,4]oxa-zepin-4(5H)-yl)methyl)-4-methylphenyl)-2,2-dimethylpropanoic acid] | 100 to 1000 | – |
| Cc1ccc([C@H](CC(=O)O)c2ccc3c(nnn3C)c2C)cc1CN1CCCC(n2cccn2)C1 (single isomer, unassigned) [compound 159] | 1000 to 10000 | – |
| CCC1CN(Cc2cc([C@H](CC(=O)O)c3ccc4c(nnn4C)c3C)ccc2C)Cc2ccccc2O1 (stereo partly drawn) [Example 5, (3S)-3-(1,4-Dimethyl-1H-benzo[d][1,2,3]triazol-5-yl)-3-(3-((2-ethyl-2,3-dihydrobenzo[f][1,4]oxazepin-4(5H)-yl)methyl)-4-methylphenyl)propanoic Acid, Trifluoroacetic Acid Salt] | 10 to 100 | – |
| CC[C@@H]1CN(Cc2cc(C(c3ccc4c(nnn4C)c3C)C(C)(C)C(=O)O)ccc2C)Cc2cccnc2O1 (stereo partly drawn) [Example 113, 3-(1,4-Dimethyl-1H-benzo[d][1,2,3]triazol-5-yl)-3-(3-(((R)-2-ethyl-2,3-dihydropyrido[3,2-f][1,4]oxazepin-4(5H)-yl)methyl)-4-methylphenyl)-2,2-dimethylpropanoic Acid] | 100 to 1000 | – |
| CC[C@@H]1CN(Cc2cc(C(CC(=O)O)c3ncc4c(nnn4C)c3C)ccc2C)Cc2ccccc2O1 (stereo partly drawn) [Example 48, 3-(3,7-Dimethyl-3H-[1,2,3]triazolo[4,5-c]pyridin-6-yl)-3-(3-(((R)-2-ethyl-2,3-dihydrobenzo[f][1,4]oxazepin-4(5H)-yl)methyl)-4-methylphenyl)propanoic Acid, Trifluoroacetic Acid Salt] | 100 to 1000 | – |
| CCC1CCN(Cc2nccn2Cc2cc([C@H](c3ccc4c(nnn4C)c3C)C(C)C(=O)O)ccc2C)CC1 (stereo partly drawn) [Example 152, (3R)-3-(1,4-Dimethyl-1H-benzo[d][1,2,3]triazol-5-yl)-3-(3-((2-((4-ethylpiperidin-1-yl)methyl)-1H-imidazol-1-yl)methyl)-4-methylphenyl)-2-methylpropanoic Acid, Trifluoroacetic Acid Salt] | 100 to 1000 | – |
| CCn1nnc2c(C)c([C@H](c3ccc(C)c(CN4Cc5ccccc5OC(C)(C)C4)c3)C(C)(C)C(=O)O)ccc21 (single isomer, unassigned; enantiomer b) [Example 207] | 10 to 100 | – |
| Cc1ccc(C(CC(=O)O)c2ccc3c(nnn3C)c2C)cc1CN1CCCC(S(=O)(=O)C2CCCCC2)C1 (stereo not drawn) [compound 186, 3-(3-((3-(Cyclohexylsulfonyl)piperidin-1-yl)methyl)-4-methylphenyl)-3-(1,4-dimethyl-1H-benzo[d][1,2,3]triazol-5-yl)propanoic acid] | 100 to 1000 | – |
| CC[C@@H]1CN(Cc2cc(C(CCc3cn(CC)nn3)C(C)C(=O)O)ccc2C)Cc2ccccc2O1 (single isomer, unassigned; isomer 2) [Example 119] | – | 10 to 100 |
| CCn1nnc2c(F)c([C@@H](CC(=O)O)c3ccc(C)c(CN4Cc5ccccc5OC(C)(C)C4)c3)ccc21 [Example 64, (S)-3-(3-((2,2-Dimethyl-2,3-dihydrobenzo[f][1,4]oxazepin-4(5H)-yl)methyl)-4-methylphenyl)-3-(1-ethyl-4-fluoro-1H-benzo[d][1,2,3]triazol-5-yl)propanoic Acid] | 10 to 100 | – |
| Cc1ccc(C(CC(=O)O)c2ccc3c(nnn3C)c2C)cc1CN1CCCC(n2cccn2)C1 (stereo not drawn) [Example 9, Ammonium 3-(3-((3-(1H-pyrazol-1-yl)piperidin-1-yl)methyl)-4-methylphenyl)-3-(1,4-dimethyl-1H-benzo[d][1,2,3]triazol-5-yl)propanoate] | 1000 to 10000 | – |
| CCC1CN(Cc2cc(C(CC(=O)O)c3cc(OC)c4c(nnn4C)c3C)ccc2C)Cc2ccccc2O1 (stereo not drawn) [Example 70, 3-(3-((2-Ethyl-2,3-dihydrobenzo[f][1,4]oxazepin-4(5H)-yl)methyl)-4-methylphenyl)-3-(7-methoxy-1,4-dimethyl-1H-benzo[d][1,2,3]triazol-5-yl)propanoic Acid, Formic Acid Salt] | 10 to 100 | – |
| CC[C@@H]1CN(Cc2cc(C(CC(=O)O)c3ccc4c(nnn4CC)c3F)ccc2C)Cc2ccccc2O1 (single isomer, unassigned) [Example 181] | 10 to 100 | – |
| Cc1ccc(C(CC(=O)O)c2ccc3c(nnn3C)c2C)cc1CN1Cc2cccnc2OC(C)(C)C1 (stereo not drawn) [Example 96, 3-(1,4-Dimethyl-1H-benzo[d][1,2,3]triazol-5-yl)-3-(3-((2,2-dimethyl-2,3-dihydropyrido[3,2-f][1,4]oxazepin-4(5H)-yl)methyl)-4-methylphenyl)propanoic Acid] | 100 to 1000 | – |
| CC[C@@H]1CN(Cc2cc(C(CC(=O)O)c3ccc4c(nnn4C)c3C)ccc2C)Cc2cccnc2O1 (stereo partly drawn) [Example 116, 3-(1,4-Dimethyl-1H-benzo[d][1,2,3]triazol-5-yl)-3-(3-(((R)-2-ethyl-2,3-dihydropyrido[3,2-f][1,4]oxazepin-4(5H)-yl)methyl)-4-methylphenyl)propanoic Acid, Formic Acid Salt] | 1000 to 10000 | – |
| Cc1ccc(C(c2ccc3c(nnn3C)c2C)C(C)(C)C(=O)O)cc1Cc1cnnn1CC1CCCCCC1 (single isomer, unassigned) [Example 241] | < 1 | – |
| Cc1ccc(C(CC(=O)NS(C)(=O)=O)c2ccc3c(nnn3C)c2C)cc1CN1Cc2ccccc2OC(C)(C)C1 (stereo not drawn) [Example 187, 3-(1,4-Dimethyl-1H-benzo[d][1,2,3]triazol-5-yl)-3-(3-((2,2-dimethyl-2,3-dihydrobenzo[f][1,4]oxazepin-4(5H)-yl)methyl)-4-methylphenyl)-N-(methylsulfonyl)propanamide] | 100 to 1000 | – |
